Data published in patent US8871753B2, “Macrocyclic compounds and their use as kinase inhibitors” (Incyte Corporation, priority 2008, dated 2014).
Where a name gives a salt, the structure may show the parent alone. Read-outs that look alike come from different tables or passages of the source.

Assays:
Type in all cases: biochemical
[1] = molecular target: T1, human JAK3 (a.a. 781-1124) (Homo sapiens, UniProt P52333); assay: In vitro JAK kinase assay (HTRF, phosphorylation of a biotinylated peptide), JAK3
T1 construct: JAK3 (a.a. 781-1124); His tag (N); made in house; host or cells: insect cells (baculovirus)
T1 sequence (P52333 781-1124): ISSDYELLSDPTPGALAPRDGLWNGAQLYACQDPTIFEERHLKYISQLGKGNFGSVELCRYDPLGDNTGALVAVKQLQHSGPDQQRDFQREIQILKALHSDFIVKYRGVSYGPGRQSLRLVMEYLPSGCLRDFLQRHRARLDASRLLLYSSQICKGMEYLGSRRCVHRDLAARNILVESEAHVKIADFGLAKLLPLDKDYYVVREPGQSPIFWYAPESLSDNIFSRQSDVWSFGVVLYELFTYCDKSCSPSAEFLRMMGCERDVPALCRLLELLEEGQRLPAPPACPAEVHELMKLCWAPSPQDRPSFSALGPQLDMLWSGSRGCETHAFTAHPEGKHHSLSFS
Procedure, shortened: (§1)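 Kinase reactions ran at room temperature for 1 h with ATP matched per isoform (JAK1 90 μM, JAK2 30 μM, JAK3 3 μM). After an EDTA stop, the phosphorylated biotin-peptide was read by HTRF using Eu-Py20 and SA-APC after 40 min binding.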

[2] = molecular target: T2, Recombinant Human Anaplastic Lymphoma Kinase (Homo sapiens, UniProt Q9UM73); assay: ALK HTRF kinase assay
T2 construct: purchased Invitrogen, Carlsbad, Calif
T2 sequence (Q9UM73 19-1620): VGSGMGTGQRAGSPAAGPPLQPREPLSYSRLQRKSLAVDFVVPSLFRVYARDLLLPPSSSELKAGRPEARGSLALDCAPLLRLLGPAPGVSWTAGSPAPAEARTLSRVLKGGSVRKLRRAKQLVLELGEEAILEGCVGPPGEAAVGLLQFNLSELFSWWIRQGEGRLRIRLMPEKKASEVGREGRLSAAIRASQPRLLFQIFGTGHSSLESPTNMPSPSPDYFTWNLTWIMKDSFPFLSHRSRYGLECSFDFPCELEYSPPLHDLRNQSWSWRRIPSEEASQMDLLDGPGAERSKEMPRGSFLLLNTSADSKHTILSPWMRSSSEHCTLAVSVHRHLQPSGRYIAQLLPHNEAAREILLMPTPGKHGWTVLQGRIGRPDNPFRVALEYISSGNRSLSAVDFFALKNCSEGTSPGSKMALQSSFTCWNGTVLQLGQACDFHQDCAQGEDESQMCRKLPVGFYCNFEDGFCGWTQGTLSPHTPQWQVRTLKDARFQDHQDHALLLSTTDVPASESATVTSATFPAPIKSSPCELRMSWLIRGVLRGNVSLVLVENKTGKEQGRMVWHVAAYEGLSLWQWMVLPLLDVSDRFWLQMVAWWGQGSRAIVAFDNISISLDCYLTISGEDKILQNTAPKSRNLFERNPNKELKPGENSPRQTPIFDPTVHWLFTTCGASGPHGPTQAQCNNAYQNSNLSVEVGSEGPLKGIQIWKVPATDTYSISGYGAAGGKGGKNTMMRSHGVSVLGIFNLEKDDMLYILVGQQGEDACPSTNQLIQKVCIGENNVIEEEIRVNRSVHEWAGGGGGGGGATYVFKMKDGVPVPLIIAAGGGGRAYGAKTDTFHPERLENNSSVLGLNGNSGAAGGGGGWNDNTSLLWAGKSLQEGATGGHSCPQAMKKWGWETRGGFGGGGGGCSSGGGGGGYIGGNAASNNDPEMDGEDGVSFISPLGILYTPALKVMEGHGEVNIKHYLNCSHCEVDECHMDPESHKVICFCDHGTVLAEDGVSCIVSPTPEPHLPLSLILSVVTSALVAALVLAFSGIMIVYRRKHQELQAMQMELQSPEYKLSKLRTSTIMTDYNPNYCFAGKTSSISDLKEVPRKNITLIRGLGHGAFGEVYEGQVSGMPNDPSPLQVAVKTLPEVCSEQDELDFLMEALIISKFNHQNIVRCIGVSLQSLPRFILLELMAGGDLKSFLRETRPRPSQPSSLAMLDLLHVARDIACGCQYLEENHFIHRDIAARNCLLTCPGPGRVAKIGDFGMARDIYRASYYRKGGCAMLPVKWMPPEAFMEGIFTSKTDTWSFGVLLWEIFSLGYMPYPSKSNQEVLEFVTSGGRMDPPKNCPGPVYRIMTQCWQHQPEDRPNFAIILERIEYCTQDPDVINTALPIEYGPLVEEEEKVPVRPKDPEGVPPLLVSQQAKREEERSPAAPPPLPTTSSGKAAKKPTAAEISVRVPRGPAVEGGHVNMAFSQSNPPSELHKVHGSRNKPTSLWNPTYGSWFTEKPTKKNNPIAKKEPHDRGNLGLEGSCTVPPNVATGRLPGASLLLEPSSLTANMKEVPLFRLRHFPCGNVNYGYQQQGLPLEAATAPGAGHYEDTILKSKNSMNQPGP
Procedure, shortened: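 Recombinant human ALK with biotinylated peptide substrate; phosphorylation detected by HTRF using Eu-labelled anti-phosphotyrosine antibody and streptavidin-allophycocyanin. IC50 from a sigmoidal fit with Hill slope.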

[3] = molecular target: T3, human JAK1 (a.a. 837-1142) (Homo sapiens, UniProt P23458); assay: In vitro JAK kinase assay (HTRF, phosphorylation of a biotinylated peptide), JAK1; settings: read-out: JAK1 IC50
T3 construct: human JAK1 (a.a. 837-1142); His tag (N); made in house; host or cells: insect cells (baculovirus)
T3 sequence (P23458 849-1154): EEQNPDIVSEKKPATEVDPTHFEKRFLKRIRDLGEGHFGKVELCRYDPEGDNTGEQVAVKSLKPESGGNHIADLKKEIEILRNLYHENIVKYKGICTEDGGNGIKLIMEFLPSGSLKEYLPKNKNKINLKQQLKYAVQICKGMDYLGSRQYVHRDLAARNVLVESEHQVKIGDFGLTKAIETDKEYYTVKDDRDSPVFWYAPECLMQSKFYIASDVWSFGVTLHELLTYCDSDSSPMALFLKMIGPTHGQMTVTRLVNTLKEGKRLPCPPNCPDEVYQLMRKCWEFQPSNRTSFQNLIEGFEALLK
Procedure, shortened: as §1

TYK2 = TYK2 (Homo sapiens, UniProt P29597); assay: TYK2 kinase inhibition (Table A1)
TYK2, sequence (P29597 whole entry): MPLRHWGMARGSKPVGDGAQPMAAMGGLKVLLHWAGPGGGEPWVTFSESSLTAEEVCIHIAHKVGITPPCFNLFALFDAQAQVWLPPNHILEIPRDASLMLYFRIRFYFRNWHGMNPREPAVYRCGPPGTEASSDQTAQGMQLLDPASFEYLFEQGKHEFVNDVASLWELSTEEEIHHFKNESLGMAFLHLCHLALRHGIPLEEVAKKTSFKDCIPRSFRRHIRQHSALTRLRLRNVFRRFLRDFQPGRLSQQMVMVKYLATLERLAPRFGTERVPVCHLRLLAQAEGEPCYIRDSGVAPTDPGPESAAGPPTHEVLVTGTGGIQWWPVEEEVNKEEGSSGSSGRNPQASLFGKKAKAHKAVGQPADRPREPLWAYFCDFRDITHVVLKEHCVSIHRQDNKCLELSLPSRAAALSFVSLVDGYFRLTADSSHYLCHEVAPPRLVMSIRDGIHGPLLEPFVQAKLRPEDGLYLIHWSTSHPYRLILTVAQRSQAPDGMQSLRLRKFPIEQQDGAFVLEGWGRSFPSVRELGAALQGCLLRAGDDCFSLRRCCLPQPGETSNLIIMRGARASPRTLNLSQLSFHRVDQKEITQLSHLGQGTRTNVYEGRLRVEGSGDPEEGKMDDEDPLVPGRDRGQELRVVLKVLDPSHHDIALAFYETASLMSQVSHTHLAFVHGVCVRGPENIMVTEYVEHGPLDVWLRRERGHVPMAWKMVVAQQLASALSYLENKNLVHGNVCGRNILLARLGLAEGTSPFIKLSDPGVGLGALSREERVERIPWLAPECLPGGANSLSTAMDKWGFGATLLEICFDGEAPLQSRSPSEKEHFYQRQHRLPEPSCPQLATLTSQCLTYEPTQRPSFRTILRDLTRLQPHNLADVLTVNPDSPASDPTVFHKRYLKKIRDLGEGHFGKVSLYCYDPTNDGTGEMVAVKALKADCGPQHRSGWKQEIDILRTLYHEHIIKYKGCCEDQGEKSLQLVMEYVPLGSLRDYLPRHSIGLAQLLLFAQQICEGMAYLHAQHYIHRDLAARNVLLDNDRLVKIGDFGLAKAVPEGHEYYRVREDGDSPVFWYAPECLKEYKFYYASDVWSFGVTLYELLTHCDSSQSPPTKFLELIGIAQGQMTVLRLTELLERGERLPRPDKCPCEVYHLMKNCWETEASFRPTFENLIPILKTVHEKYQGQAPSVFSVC

[4] = molecular target: T4, human JAK2 (a.a. 828-1132) (Homo sapiens, UniProt O60674); assay: In vitro JAK kinase assay (HTRF, phosphorylation of a biotinylated peptide), JAK2
T4 construct: JAK2 (a.a. 828-1132); His tag (N); made in house; host or cells: insect cells (baculovirus)
T4 sequence (O60674 828-1132): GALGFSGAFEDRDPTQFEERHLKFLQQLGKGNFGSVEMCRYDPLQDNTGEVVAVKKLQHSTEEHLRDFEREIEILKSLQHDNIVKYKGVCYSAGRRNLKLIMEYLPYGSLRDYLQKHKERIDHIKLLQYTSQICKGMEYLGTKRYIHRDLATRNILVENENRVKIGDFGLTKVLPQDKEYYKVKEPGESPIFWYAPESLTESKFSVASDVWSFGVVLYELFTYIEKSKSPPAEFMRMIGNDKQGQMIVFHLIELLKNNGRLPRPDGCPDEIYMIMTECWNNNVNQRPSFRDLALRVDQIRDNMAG
Procedure, shortened: as §1

[5] = compound at a concentration of 500 nM or 1 mM (not specified), cells shown as percentage
[6] = Table B1, cells without percent sign
[7] = method AA1 (3 μM ATP) or AA2 (1000 μM ATP), not stated per value
[8] = compound at 500 nM or 1 mM, 90 μM ATP
[9] = method AA1 (90 μM ATP) or AA2 (1000 μM ATP), not stated per value
[10] = method AA1 (30 μM ATP) or AA2 (1000 μM ATP), not stated per value

Row | SMILES | IC50 ([1]; Table B1) | IC50 ([3]; Table B1) | IC50 (TYK2; Table B1) | IC50 ([4]; Table B1) | IC50 [1, 7] | ALK % of inhibition at a concentration of 500 nM or 1 mM [2, 8] | IC50 [3, 9] | IC50 (TYK2) | IC50 [4, 10] | further results
1 | O=C(Nc1nccs1)Nc1ccc2cc1CCc1cccc(c1)Nc1ncc(Cl)c(n1)N2 [Example B245, N-[6-Chloro-2,4,8,22-tetraazatetracyclo[14.3.1.1(3,7).1(9,13)]docosa-1(20),3(22),4,6,9(21),10,12,16,18-nonaen-12-yl]-N′-1,3-thiazol-2-ylurea trifluoroacetate] | 20 nM | 17 nM | 8.5 nM | 78 nM | – | – | – | – | – | ALK % of inhibition at a concentration of 500 nM or 1 mM [2, 5]: 41%
2 | O=C(Nc1ccsc1)Nc1ccc2cc1CCc1cccc(c1)Nc1ncc(Cl)c(n1)N2 [Example B89, N-[6-Chloro-2,4,8,22-tetraazatetracyclo[14.3.1.1(3,7).1(9,13)]docosa-1(20),3(22),4,6,9(21),10,12,16,18-nonaen-12-yl]-N′-3-thienylurea trifluoroacetate] | 40 nM | 2.4 nM | 16 nM | 2.9 nM | – | – | – | – | – | IC50 [2, 6]: > 1000 nM
3 | Cc1noc(C)c1C(=O)N1CCC(C(=O)Nc2ccc3cc2CCc2cccc(c2)Nc2ncc(Cl)c(n2)N3)CC1 [Example A34, N-[6-Chloro-2,4,8,22-tetraazatetracyclo[14.3.1.1(3,7).1(9,13)]docosa-1(20), 3(22),4,6,9(21),10,12,16,18-nonaen-12-yl]-1-[(3,5-dimethylisoxazol-4-yl)carbonyl]piperidine-4-carboxamide trifluoroacetate] | – | – | – | – | > 1000 nM | 5% | 446 nM | 343 nM | 220 nM | –
4 | Oc1ccnc(Nc2ccc3cc2CCc2cccc(c2)Nc2ncc(Cl)c(n2)N3)n1 [Example B277, 2-{[6-Chloro-2,4,8,22-tetraazatetracyclo[14.3.1.1(3,7).1(9,13)]docosa-1(20),3(22),4,6,9(21),10,12,16,18-nonaen-12-yl]amino}pyrimidin-4-ol bis(trifluoroacetate)] | 359 nM | 4.8 nM | 62 nM | 5.9 nM | – | – | – | – | – | ALK % of inhibition at a concentration of 500 nM or 1 mM [2, 5]: 54%
5 | NC(=O)N1CCN(c2ccc(-c3cc4cc(c3)Nc3ncc(Cl)c(n3)Nc3cccc(c3)OCC4)cn2)CC1 [Example D40, 4-{5-[6-Chloro-14-oxa-2,4,8,23-tetraazatetracyclo[15.3.1.1(3,7).1(9,13)]tricosa-1(21),3(23),4,6,9(22),10,12,17,19-nonaen-19-yl]pyridin-2-yl}piperazine-1-carboxamide bis(trifluoroacetate)] | – | – | – | – | – | – | – | – | – | IC50 ([1]; Table D1): 7.2 nM; IC50 ([2]; Table D1, 90 μM ATP): 182 nM; IC50 ([3]; Table D1): 0.9 nM; IC50 (TYK2; Table D1): 2.1 nM; IC50 ([4]; Table D1): 0.7 nM
6 | Cc1ccccc1S(=O)(=O)N1CCC(CC(=O)Nc2ccc3cc2CCc2cncc(c2)Nc2ncc(Cl)c(n2)N3)CC1 [Example A225, N-[6-Chloro-2,4,8,18,22-pentaazatetracyclo[14.3.1.1(3,7).1(9,13)]docosa-1(20),3(22),4,6,9(21),10,12,16,18-nonaen-12-yl]-2-{1-[(2-methylphenyl)sulfonyl]piperidin-4-yl}acetamide bis(trifluoroacetate)] | – | – | – | – | > 400 nM | 36% | 7.2 nM | > 400 nM | 180 nM | –
7 | Cc1ccccc1NC(=O)N1CCC(CC(=O)Nc2ccc3cc2CCc2cncc(c2)Nc2ncc(Cl)c(n2)N3)CC1 [Example A149, 4-(2-{[6-Chloro-2,4,8,18,22-pentaazatetracyclo[14.3.1.1(3,7).1(9,13)]docosa-1(20),3(22),4,6,9(21),10,12,16,18-nonaen-12-yl]amino}-2-oxoethyl)-N-(2-methylphenyl)piperidine-1-carboxamide bis(trifluoroacetate)] | – | – | – | – | > 100 nM | 35% | 0.5 nM | 6.9 nM | 3.1 nM | –
8 | Clc1cnc2nc1Nc1cccc(c1)OCCNc1cccc(c1)N2 [Example D70, 6-Chloro-14-oxa-2,4,8,17,24-pentaazatetracyclo[16.3.1.1(3,7).1(9,13)]tetracosa-1(22),3(24),4,6,9(23),10,12,18,20-nonaene bis(trifluoroacetate)] | – | – | – | – | – | – | – | – | – | IC50 ([1]; Table D1): 8.1 nM; IC50 ([2]; Table D1, 90 μM ATP): 375 nM; IC50 ([3]; Table D1): 9 nM; IC50 (TYK2; Table D1): 5 nM; IC50 ([4]; Table D1): 2.1 nM
9 | Clc1cnc2nc1Nc1ccc(CN3CCNCC3)c(c1)CCc1cccc(c1)N2 [Example B224, 6-Chloro-12-(piperazin-1-ylmethyl)-2,4,8,22-tetraazatetracyclo[14.3.1.1(3,7).1(9,13)]docosa-1(20),3(22),4,6,9(21),10,12,16,18-nonaene tris(trifluoroacetate)] | 41 nM | 19 nM | 41 nM | 8.9 nM | – | – | – | – | – | ALK % of inhibition at a concentration of 500 nM or 1 mM [2, 5]: 28%
10 | Cn1ccc(C(=O)N2CC[C@H](NC(=O)Nc3ccc4cc3CCc3cncc(c3)Nc3ncc(Cl)c(n3)N4)C2)n1 [Example B272, N-[6-Chloro-2,4,8,18,22-pentaazatetracyclo[14.3.1.1(3,7).1(9,13)]docosa-1(20),3(22),4,6,9(21),10,12,16,18-nonaen-12-yl]-N′-{(3S)-1-[(1-methyl-1H-pyrazol-3-yl)carbonyl]pyrrolidin-3-yl}urea bis(trifluoroacetate)] | > 10000 nM | 14 nM | 575 nM | 316 nM | – | – | – | – | – | ALK % of inhibition at a concentration of 500 nM or 1 mM [2, 5]: 23%
11 | Clc1cnc2nc1Nc1cccc(c1)NCCOc1cccc(c1)N2 [Example D72, 6-Chloro-17-oxa-2,4,8,14,24-pentaazatetracyclo[16.3.1.1(3,7).1(9,13)]tetracosa-1(22),3(24),4,6,9(23),10,12,18,20-nonaene bis(trifluoroacetate)] | – | – | – | – | – | – | – | – | – | IC50 ([1]; Table D1): 7.4 nM; IC50 ([2]; Table D1, 90 μM ATP): 772 nM; IC50 ([3]; Table D1): 12 nM; IC50 (TYK2; Table D1): 6.9 nM; IC50 ([4]; Table D1): 2.2 nM
12 | COc1ccc(C(=O)Nc2ccc3cc2CCc2cccc(c2)Nc2ncc(Cl)c(n2)N3)cc1 [Example B67, N-[6-Chloro-2,4,8,22-tetraazatetracyclo[14.3.1.1(3,7).1(9,13)]docosa-1(20), 3(22),4,6,9(21),10,12,16,18-nonaen-12-yl]-4-methoxybenzamide trifluoroacetate] | 15 nM | 3.2 nM | 6 nM | 1.9 nM | – | – | – | – | – | IC50 [2, 6]: 220 nM
13 | COc1cccc(N2CCC(CC(=O)Nc3ccc4cc3CCc3cncc(c3)Nc3ncc(Cl)c(n3)N4)CC2)c1C#N [Example A233, N-[6-Chloro-2,4,8,18,22-pentaazatetracyclo[14.3.1.1(3,7).1(9,13)]docosa-1(20),3(22),4,6,9(21),10,12,16,18-nonaen-12-yl]-2-[1-(2-cyano-3-methoxyphenyl)piperidin-4-yl]acetamide tris(trifluoroacetate)] | – | – | – | – | > 400 nM | 24% | 0.4 nM | 26 nM | 19 nM | –
14 | Cc1cc(C(=O)N2CCC(CCC(=O)Nc3ccc4cc3CCc3cccc(c3)Nc3ncc(Cl)c(n3)N4)CC2)no1 [Example A124, N-[6-Chloro-2,4,8,22-tetraazatetracyclo[14.3.1.1(3,7).1(9,13)]docosa-1(20),3(22),4,6,9(21),10,12,16,18-nonaen-12-yl]-3-{1-[(5-methylisoxazol-3-yl)carbonyl]piperidin-4-yl}propanamide trifluoroacetate] | – | – | – | – | 39 nM | 34% | 0.6 nM | 5.4 nM | 2.5 nM | –
15 | CC(=O)N1CCN(c2ccc(-c3cc4cc(c3)Nc3ncc(Cl)c(n3)Nc3cccc(c3)OCC4)cn2)CC1 [Example D37, 19-[6-(4-Acetylpiperazin-1-yl)pyridin-3-yl]-6-chloro-14-oxa-2,4,8,23-tetraazatetracyclo[15.3.1.1(3,7).1(9,13)]tricosa-1(21),3(23),4,6,9(22),10,12,17,19-nonaene tris(trifluoroacetate)] | – | – | – | – | – | – | – | – | – | IC50 ([1]; Table D1): 9.9 nM; IC50 ([2]; Table D1, 90 μM ATP): 248 nM; IC50 ([3]; Table D1): 0.9 nM; IC50 (TYK2; Table D1): 1.4 nM; IC50 ([4]; Table D1): 0.7 nM
16 | O=S(=O)(Nc1ccc2cc1CCc1cccc(c1)Nc1ncc(Cl)c(n1)N2)c1cccs1 [Example B146, N-[6-Chloro-2,4,8,22-tetraazatetracyclo[14.3.1.1(3,7).1(9,13)]docosa-1(20), 3(22),4,6,9(21),10,12,16,18-nonaen-12-yl]thiophene-2-sulfonamide trifluoroacetate] | 2.6 nM | 0.5 nM | 0.61 nM | 0.11 nM | – | – | – | – | – | IC50 [2, 6]: 130 nM
17 | CS(=O)(=O)N1CCC(CC(=O)Nc2ccc3cc2CCc2cncc(c2)Nc2ncc(Cl)c(n2)N3)C1 (stereo not shown) [Example A91, N-[6-Chloro-2,4,8,18,22-pentaazatetracyclo[14.3.1.1(3,7).1(9,13)]docosa-1(20),3(22),4,6,9(21),10,12,16,18-nonaen-12-yl]-2-[1-(methylsulfonyl)pyrrolidin-3-yl]acetamide bis(trifluoroacetate)] | – | – | – | – | 44 nM | 29% | 3.7 nM | 14 nM | 5.9 nM | –
